ChEMBL document CHEMBL6182916, “Unexpected Discovery of a Novel Triphenylphosphonium Alkylalcohol That Triggers Cancer Cell Death via Mitophagy and Ferroptosis” (J Med Chem, 2025)
pIC50: −log10 of the molar value. Blank lines part the entries; values can stand above or below the compound they belong to. Active and inactive are the calls of the source. No cut-off for these calls is given here.

How the values were obtained:
A-375 [1] = assay: Anticancer activity against human A-375 cells assessed as inhibition of cell growth by MTT assay; format: functional, cell-based
[2] = Drug metabolism in human HCC827 cells mitochondria assessed as 2-(2-(4-hydroxystyryl)-4H-chromen-4-ylidene)malononitrile hydrolysis at 10 uM incubated for 5 mins by fluorescence emission spectroscopy analysis; format: ADME; conditions: hcc827, 5 min
[3] = Drug localization in mitochondria of human HCC827 cells assessed as increase in green fluorescence by measuring pearson correlation coefficient at 10 uM incubated for 10 mins by mito-tracker green dye based confocal scanning microscopy analysis; format: ADME; conditions: hcc827, 10 min
[4] = Drug uptake in human HCC827 cells mitochondria assessed as increase in fluorescence intensity at 10 uM by fluorescence emission spectroscopy analysis; format: ADME; conditions: hcc827, 10 µM
[5] = Drug accumulation in mitochondria of human HCC827 cells at 10 uM incubated for 10 mins in presence of CCCP by RP-HPLC-UV analysis; format: ADME; conditions: hcc827, 10 min
A-375 [6] = assay: Antiproliferative activity against human A-375 cells assessed as inhibition of cell growth measured after 72 hrs by MTT assay; format: functional, cell-based; conditions: A-375, 72 h
[7] = Drug accumulation in mitochondria of human HCC827 cells at 10 uM incubated for 5 mins; format: ADME; conditions: hcc827, 5 min
[8] = Antiproliferative activity against human Osimertinib-resistant HCC827 cell assessed as inhibition of cell growth measured after 72 hrs by MTT assay; format: functional, cell-based
HCC827 [9] = assay: Induction of apoptosis in human HCC827 cells assessed as late apoptotic cells at 1 uM measured after 48 hrs by annexin V and PI staining based flow cytometry analysis (reference value: 1.29%); format: functional
HCC827 [10] = assay: Induction of ROS generation in human HCC827 cells assessed as increase in NAD+/NADH ratio at 1 uM incubated for 4 hrs by absorbance based analysis; format: functional, cell-based
MDA-MB-231 = assay: Antiproliferative activity against human MDA-MB-231 cells assessed as inhibition of cell growth measured after 72 hrs by MTT assay; format: functional, cell-based; conditions: MDA-MB-231, 72 h
HCC827 [11] = assay: Induction of apoptosis in human HCC827 cells assessed as necrotic cells at 1 uM measured after 48 hrs by annexin V and PI staining based flow cytometry analysis (reference value: 1.18%); format: functional
Mitochondrial membrane = assay: Induction of mitochondrial membrane depolarization in human HCC827 cells assessed as increase in J-monomer ratio at 0.5 uM incubated for 4 hrs by JC-1 staining based flow cytometric analysis; format: cell membranes
HCC827 [12] = assay: Antiproliferative activity against human HCC827 cells assessed as inhibition of cell growth measured after 72 hrs by MTT assay; format: functional, cell-based; conditions: HCC827, 72 h
HCC827 [13] = assay: Induction of cell cycle arrest in human HCC827 cells assessed as accumulation of cells at G2 phase at 0.4 uM incubated for 24 hrs by PI staining based flow cytometry analysis (reference value: 7.15%); format: functional
NCI-H460 = assay: Antiproliferative activity against human NCI-H460 cells assessed as inhibition of cell growth measured after 72 hrs by MTT assay; format: functional, cell-based; conditions: NCI-H460, 72 h
[14] = Antiproliferative activity against human HUVEC cells assessed as inhibition of cell growth measured after 72 hrs by MTT assay; format: toxicity, cell-based
[15] = Antiproliferative activity against HEK293T cells assessed as inhibition of cell growth measured after 72 hrs by MTT assay; format: toxicity, cell-based, HEK-293T; conditions: human
[16] = Antiproliferative activity against human BEAS-2B cells assessed as inhibition of cell growth measured after 72 hrs by MTT assay; format: toxicity, cell-based
NCI-H1650 = assay: Antiproliferative activity against human NCI-H1650 cells assessed as inhibition of cell growth measured after 72 hrs by MTT assay; format: functional, cell-based; conditions: NCI-H1650, 72 h
HCC827 [17] = assay: Induction of ROS generation in human HCC827 cells assessed as decrease in NADH content at 1 uM incubated for 4 hrs by absorbance based analysis; format: functional, cell-based
HCC827 [18] = assay: Induction of mitochondrial dysfunction in human HCC827 cells assessed as cytochrome C release in cytoplasm at 1 uM measured after 72 hrs by laser scanning confocal fluorescence microscopic analysis; format: functional, cell-based
[19] = Antiproliferative activity against human LO2 cells assessed as inhibition of cell growth measured after 72 hrs by MTT assay; format: toxicity, cell-based, L02
MCF7 = assay: Antiproliferative activity against human MCF7 cells assessed as inhibition of cell growth measured after 72 hrs by MTT assay; format: functional, cell-based; conditions: MCF7, 72 h
SK-LU-1 = assay: Antiproliferative activity against human SK-LU-1 cells assessed as inhibition of cell growth measured after 72 hrs by MTT assay; format: functional, cell-based; conditions: SK-LU-1, 72 h
NCI-H1975 = assay: Antiproliferative activity against human NCI-H1975 cells assessed as inhibition of cell growth measured after 72 hrs by MTT assay; format: functional, cell-based; conditions: NCI-H1975, 72 h
HCC827 [20] = assay: Induction of apoptosis in human HCC827 cells assessed as viable cells at 1.0 uM measured after 48 hrs by annexin V and PI staining based flow cytometry analysis (reference value: 96.74%); format: functional; conditions: read-out: Activity
[21] = tested on: Osimertinib-resistant NCI-H1975 cell; assay: Antiproliferative activity against human Osimertinib-resistant NCI-H1975 cell assessed as inhibition of cell growth measured after 72 hrs by MTT assay; format: functional, cell-based
NCI-H1299 = assay: Antiproliferative activity against human NCI-H1299 cells assessed as inhibition of cell growth measured after 72 hrs by MTT assay; format: functional, cell-based; conditions: NCI-H1299, 72 h
HCC827 [22] = assay: Induction of apoptosis in human HCC827 cells assessed as early apoptotic cells at 1 uM measured after 48 hrs by annexin V and PI staining based flow cytometry analysis (reference value: 0.70%); format: functional
HCT-116 = assay: Antiproliferative activity against human HCT-116 cells assessed as inhibition of cell growth measured after 72 hrs by MTT assay; format: functional, cell-based; conditions: HCT-116, 72 h
HCC827 [23] = assay: Induction of cell cycle arrest in human HCC827 cells assessed as accumulation of cells at S phase at 0.4 uM incubated for 24 hrs by PI staining based flow cytometry analysis (reference value: 26.41%); format: functional
A549 = assay: Antiproliferative activity against human A549 cells assessed as inhibition of cell growth measured after 72 hrs by MTT assay; format: functional, cell-based; conditions: A549, 72 h
HCC827 [24] = assay: Induction of cell cycle arrest in human HCC827 cells assessed as accumulation of cells at G1 phase at 0.4 uM incubated for 24 hrs by PI staining based flow cytometry analysis (reference value: 66.44%); format: functional
HCC827 [25] = assay: Inhibition of colony formation in human HCC827 cells at 0.2 uM incubated for 72 hrs by crystal violet staining based analysis; format: functional, cell-based
[26] = Drug localization in mitochondria of human HCC827 cells assessed as increase in green fluorescence by measuring pearson correlation coefficient at 5 uM incubated for 10 mins by mito-tracker green dye based confocal scanning microscopy analysis; format: ADME; conditions: hcc827, 10 min
HCC827 [27] = assay: Antitumor activity against human HCC827 cells xenografted in female nude mouse model assessed as suppression of tumor growth at 100 mg/kg, ip measured every two days for 14 days; format: functional, organism-based; conditions: time 14.0 day
[28] = target: T1, Heat shock protein 75 kDa, mitochondrial (Homo sapiens) (UniProt Q12931); assay: Inhibition of human TRAP1 assessed as fold increase in ATPase activity at 20 uM
T1 sequence (whole entry): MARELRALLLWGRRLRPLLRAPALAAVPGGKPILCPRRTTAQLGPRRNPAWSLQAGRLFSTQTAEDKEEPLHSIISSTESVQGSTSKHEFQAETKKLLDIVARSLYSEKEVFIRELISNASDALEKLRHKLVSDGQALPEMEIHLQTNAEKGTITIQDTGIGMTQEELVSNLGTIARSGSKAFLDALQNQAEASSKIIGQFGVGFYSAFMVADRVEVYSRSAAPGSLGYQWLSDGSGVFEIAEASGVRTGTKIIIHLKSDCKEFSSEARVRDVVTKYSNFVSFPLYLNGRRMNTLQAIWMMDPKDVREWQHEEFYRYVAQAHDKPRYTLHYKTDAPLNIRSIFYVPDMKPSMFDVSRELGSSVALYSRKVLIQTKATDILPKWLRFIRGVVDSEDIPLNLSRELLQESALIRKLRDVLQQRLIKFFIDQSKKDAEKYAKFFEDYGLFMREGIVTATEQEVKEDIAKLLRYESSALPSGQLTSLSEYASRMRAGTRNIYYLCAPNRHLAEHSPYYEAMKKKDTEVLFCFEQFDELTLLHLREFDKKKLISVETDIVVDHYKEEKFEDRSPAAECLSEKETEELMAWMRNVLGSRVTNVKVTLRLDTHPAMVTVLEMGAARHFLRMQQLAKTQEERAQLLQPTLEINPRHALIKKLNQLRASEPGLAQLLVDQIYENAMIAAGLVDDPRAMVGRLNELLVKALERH

Structure (SMILES): O=C(CCCCC(CCSCc1ccccc1)SCc1ccccc1)OCCCCCCCCCC[P+](c1ccccc1)(c1ccccc1)c1ccccc1 (stereo unspecified)
pIC50 (A-375 [1]): 7.00

Structure (SMILES): N#CC(C#N)=C1C=C(/C=C/c2ccc(OC(=O)OCCCCCCCCCC[P+](c3ccccc3)(c3ccccc3)c3ccccc3)cc2)Oc2ccccc21.[Br-]
Drug metabolism [2]: metabolite_detected
Drug uptake [3]: 0.9
Drug uptake [4]: Active

Structure (SMILES): COc1cc2ncnc(Nc3ccc(F)c(Cl)c3)c2cc1OCCCN1CCOCC1
Activity (HCC827 [27]): Active

Further lines, with some results ahead:

Drug metabolism [2]: metabolite_detected
Drug uptake [3]: 0.46
Drug uptake [4]: Not_active
Structure (SMILES): N#CC(C#N)=C1C=C(/C=C/c2ccc(OC(=O)OCCCCCCCCCC[P+](c3ccc(C(F)(F)F)cc3)(c3ccc(C(F)(F)F)cc3)c3ccc(C(F)(F)F)cc3)cc2)Oc2ccccc21.[Br-]

Drug uptake [5]: Not_active
pIC50 (A-375 [6]): 5.27
Drug uptake [7]: 52%
pIC50 (MDA-MB-231): 5.20
Activity (Mitochondrial membrane): inactive
pIC50 (HCC827 [12]): < 5.30
pIC50 (NCI-H460): 5.51
pIC50 (NCI-H1650): 5.71
pIC50 (MCF7): 5.19
pIC50 (SK-LU-1): < 5.30
pIC50 (NCI-H1975): < 5.30
pIC50 [21]: 5.27
pIC50 (NCI-H1299): < 5.00
pIC50 (HCT-116): 5.11
pIC50 (A549): 5.21
Structure (SMILES): OCCCCCCCCCC[P+](c1ccc(C(F)(F)F)cc1)(c1ccc(C(F)(F)F)cc1)c1ccc(C(F)(F)F)cc1.[Br-]
pIC50 [8]: < 5.30
Activity (HCC827 [9]): 2.72%
Activity (HCC827 [10]): Active
Activity (HCC827 [11]): 2.87%
Activity (HCC827 [13]): 4.38%
IC50 at 72 h [14]: > 40 µM
IC50 at 72 h [15]: 13.8 µM
IC50 at 72 h [16]: 6.9 µM
Activity (HCC827 [17]): Active
Activity (HCC827 [18]): inactive
IC50 at 72 h [19]: > 40 µM
viability at 1 µM (HCC827 [20]): 92.1%
Activity (HCC827 [22]): 1.3%
Activity (HCC827 [23]): 26.29%
Activity (HCC827 [24]): 69.33%
inhibition (HCC827 [25]): Weak_effect

Drug uptake [26]: 0.21
Structure (SMILES): N#CC(C#N)=C1C=C(/C=C/c2ccc(O)cc2)Oc2ccccc21

fold change (FC) [28]: 1.4
Structure (SMILES): CC1=C(C)C(=O)C(CCCCCCCCCC[P+](c2ccccc2)(c2ccccc2)c2ccccc2)=CC1=O
